Our source for the Relative potency and IC50 values is ChEMBL document CHEMBL1124153, “Synthesis and renin inhibitory activity of angiotensinogen analogues having dehydrostatine, Leu psi [CH2S]Val, or Leu psi [CH2SO]Val at the P1-P1' cleavage site” (J Med Chem, 1988).

One assay addresses T1, Renin (Homo sapiens) (UniProt P00797).
T1 sequence (whole entry): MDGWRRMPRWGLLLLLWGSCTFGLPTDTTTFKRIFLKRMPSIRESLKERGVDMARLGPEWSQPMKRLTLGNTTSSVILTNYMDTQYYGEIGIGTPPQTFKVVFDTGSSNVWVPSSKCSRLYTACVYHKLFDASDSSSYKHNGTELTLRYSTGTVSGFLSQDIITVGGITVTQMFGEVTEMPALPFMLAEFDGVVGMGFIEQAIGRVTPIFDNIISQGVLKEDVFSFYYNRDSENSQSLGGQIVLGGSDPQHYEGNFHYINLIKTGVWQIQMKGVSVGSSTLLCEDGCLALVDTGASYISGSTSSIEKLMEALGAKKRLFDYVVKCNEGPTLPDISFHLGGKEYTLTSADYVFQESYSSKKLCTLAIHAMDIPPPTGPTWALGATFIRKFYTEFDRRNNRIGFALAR
The experiment in a line: Inhibitory potency against renin relative to H-Pro-His-Pro-Phe-His-Phe-Phe-Val-Tyr-D-Lys-OH peptide.

The target of the next assay is T2, Renin (Homo sapiens, UniProt P00797).
T2 sequence (P00797 whole entry): T1 sequence (whole entry)
The experiment in a line: In vitro inhibitory activity against renin from lyophilized human plasma. The assay is classed as cell-free.

Compound `CC[C@@H](C)[C@H](NC(=O)/C=C/[C@H](CC(C)C)NC(=O)[C@H](Cc1c[nH]cn1)NC(=O)[C@H](Cc1ccccc1)NC(=O)[C@H]1CCCN1C(=O)[C@H](Cc1c[nH]cn1)NC(=O)[C@H]1CCCN1)C(=O)N[C@@H](Cc1c[nH]cn1)C(=O)N[C@H](CCCCN)C(=O)O` gave a Relative potency at Renin (Homo sapiens) of 1.6.

At Renin (Homo sapiens), `CC[C@@H](C)[C@H](NC(=O)[C@H](Cc1ccccc1)NC(=O)[C@H](Cc1ccccc1)NC(=O)[C@H](Cc1c[nH]cn1)NC(=O)[C@H](Cc1ccccc1)NC(=O)[C@H]1CCCN1C(=O)[C@H](Cc1c[nH]cn1)NC(=O)[C@H]1CCCN1)C(=O)N[C@@H](Cc1c[nH]cn1)C(=O)N[C@H](CCCCN)C(=O)O` showed a Relative potency of 0.6.

`CC[C@@H](C)[C@H](NC(=O)[C@H](Cc1ccccc1)NC(=O)[C@H](Cc1ccccc1)NC(=O)[C@H](Cc1cnc[nH]1)NC(=O)[C@H](Cc1ccccc1)NC(=O)[C@H]1CCCN1C(=O)[C@H](Cc1cnc[nH]1)NC(=O)[C@H]1CCCN1)C(=O)N[C@@H](Cc1cnc[nH]1)C(=O)N[C@H](CCCCN)C(=O)O` gave a concentration for half-maximal inhibition (IC50) against Renin of 170 µM.

`CC(C)[C@H](NC(=O)[C@H](Cc1ccccc1)NC(=O)[C@H](Cc1ccccc1)NC(=O)[C@H](Cc1cnc[nH]1)NC(=O)[C@H](Cc1ccccc1)NC(=O)[C@H]1CCCN1C(=O)[C@H](Cc1cnc[nH]1)NC(=O)[C@H]1CCCN1)C(=O)N[C@@H](Cc1ccc(O)cc1)C(=O)N[C@H](CCCCN)C(=O)O` gave an IC50 on Renin of 10 µM.

Compound `CC[C@@H](C)[C@H](NC(=O)[C@@H](SC[C@H](CC(C)C)NC(=O)[C@H](Cc1c[nH]cn1)NC(=O)[C@H](Cc1ccccc1)NC(=O)[C@H]1CCCN1C(=O)[C@H](Cc1c[nH]cn1)NC(=O)[C@H]1CCCN1)C(C)C)C(=O)N[C@@H](Cc1c[nH]cn1)C(=O)N[C@H](CCCCN)C(=O)O` yielded an IC50 on Renin of 6 µM. Also, on Renin (Homo sapiens), the Relative potency is 1.6.

In the case of `CC(C)[C@H](NC(=O)[C@H](Cc1ccccc1)NC(=O)[C@H](Cc1ccccc1)NC(=O)[C@H](Cc1c[nH]cn1)NC(=O)[C@H](Cc1ccccc1)NC(=O)[C@H]1CCCN1C(=O)[C@H](Cc1c[nH]cn1)NC(=O)[C@H]1CCCN1)C(=O)N[C@@H](Cc1ccc(O)cc1)C(=O)N[C@H](CCCCN)C(=O)O`, the Relative potency on Renin (Homo sapiens) worked out at 1.

Compound `CC[C@@H](C)[C@H](NC(=O)/C=C/[C@H](CC(C)C)NC(=O)[C@H](Cc1cnc[nH]1)NC(=O)[C@H](Cc1ccccc1)NC(=O)[C@H]1CCCN1C(=O)[C@H](Cc1cnc[nH]1)NC(=O)[C@H]1CCCN1)C(=O)N[C@@H](Cc1cnc[nH]1)C(=O)N[C@H](CCCCN)C(=O)O` came in with an IC50 against Renin of 6.2 µM.

`CC[C@@H](C)[C@H](NC(=O)[C@@H](NC[C@H](CC(C)C)NC(=O)[C@H](Cc1c[nH]cn1)NC(=O)[C@H](Cc1ccccc1)NC(=O)[C@H]1CCCN1C(=O)[C@H](Cc1c[nH]cn1)NC(=O)[C@H]1CCCN1)C(C)C)C(=O)N[C@@H](Cc1c[nH]cn1)C(=O)N[C@H](CCCCN)C(=O)O`: the IC50 against Renin came out at 0.049 µM. On Renin (Homo sapiens), this compound yielded a Relative potency of 200.

`CC[C@@H](C)[C@H](NC(=O)[C@H](C(C)C)[S+]([O-])C[C@H](CC(C)C)NC(=O)[C@H](Cc1c[nH]cn1)NC(=O)[C@H](Cc1ccccc1)NC(=O)[C@H]1CCCN1C(=O)[C@H](Cc1c[nH]cn1)NC(=O)[C@H]1CCCN1)C(=O)N[C@@H](Cc1c[nH]cn1)C(=O)N[C@H](CCCCN)C(=O)O` (some centres not stated) had an IC50 against Renin of 2.5 µM. On Renin (Homo sapiens), this compound showed a Relative potency of 4.

The term IC50 denotes the concentration at which inhibition is half-maximal. A low value points to inhibition by little substance.
